The test system of assay [1] is H1299 p53 R273H. Briefly: Cell Proliferation Assay (CellTiter-Glo, CTG), H1299 p53 R273H (NClH1299-inducible p53 R273H). Particulars: Homo sapiens, NCI-H1299, 120 h, CellTiter-Glo, H1299 p53 R273H, 5 days. Format: cell-based. In short, it runs like this: (§1)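 Cells seeded at 250-500 per well and exposed to compound for 5 days. Viability read by CellTiter-Glo luminescence after 10 min at room temperature; IC50 calculated. H1299 lines carry Tet-One inducible p53 mutant constructs introduced by lentiviral transduction.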
(In general: ATP-based viability assays read luminescence as a measure of living cells.)

For assay [2], the target named is p53 Y220C (Homo sapiens, UniProt P04637, Y220C). The assay can be described thus: Luciferase Reporter Assay (Luc), p53 response element, NClH1299 cells with inducible p53 Y220C. It is filed as cell-based. Particulars: luciferase reporter, NClH1299 inducible p53 Y220C, 6 hour; for Emax: 10 uM tool compound as positive control; for AC50: read-out: Luc P53 Y220C AC50. The procedure, abridged:
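Steps: seed 5,000 cells/well; induce mutant p53 with 0.5 ug/mL doxycycline for 24 h; treat with compound 6 h; add equal volume One-Glo, shake 5 min at room temperature; measure luciferase immediately.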
(In general: In a reporter assay the amount or activity of a reporter protein is the signal.)

Assay [3] deals with NUGC3 p53 Y220C. The assay can be described thus: Cell Proliferation Assay (CellTiter-Glo, CTG), NUGC3 p53 Y220C. Format: cell-based. Particulars: Homo sapiens, NUGC-3, 120 h, CellTiter-Glo, NUGC3 p53 Y220C, 5 days. The procedure, abridged:
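Tet-One inducible p53 Y220C or R273H constructs were stably introduced into NCI-H1299 by lentiviral transduction; NUGC3 was used as is. Cells (250-500 per well) were exposed to compound for 5 days, then CellTiter-Glo was added for 10 min at room temperature and IC50 was calculated from luminescence.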

In assay [4] the target is T1, p53 Y220C mutant protein (amino acid residues 94-293) (Homo sapiens, UniProt P04637, Y220C).
T1 construct: p53 Y220C mutant protein (amino acid residues 94-293)
The assay can be described thus: Thermal Shift Assay (TSA), dTM. It is filed as binding. The settings on record: thermal shift; for ΔTm at 100 µM: 100 uM compound, read-out: TSA P53 Y220C dTM (100 uM). In short, it runs like this: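 5 μM protein + 10 μM or 100 μM cpd, 3 h, 20 °C; 20 mM HEPES pH7.4, 100 mM NaCl, 0.01% Pluronic F-127, 1% DMSO, Sypro Orange 400-fold dil. Ramp 30→50 °C, 0.03 °C/s. TM by Boltzmann two-state fit.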

For assay [5], the target named is T1, p53 Y220C mutant protein (amino acid residues 94-293). Briefly: Surface Plasmon Resonance (SPR) assay, Kd_kinetic. It is filed as binding. The settings on record: SPR, kinetic KD, p53 Y220C; read-out: SPR P53 Y220C KD kinetic. The procedure, abridged: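 Surface plasmon resonance is run at 16 or 20 °C in 50 mM Tris pH 7.5 containing 100 mM NaCl, 1 mM DTT, 0.01% Brij35, 0.05% Tween-20 and 1% DMSO. Association and dissociation data are fitted to a 1:1 model.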

The subject of assay [6] is H1299 p53 Y220C. The assay can be described thus: Cell Proliferation Assay (CellTiter-Glo, CTG), H1299 p53 Y220C (NClH1299-inducible p53 Y220C). It is filed as cell-based. Particulars: Homo sapiens, NCI-H1299, 120 h, CellTiter-Glo, H1299 p53 Y220C, 5 days. In short, it runs like this:
as §1

Broadly, the IC50 is the concentration that inhibits the measured activity by half. By Emax is commonly meant the greatest response seen or fitted, relative to the assay's reference. In general, AC50 refers to the midpoint of the concentration-response curve, whichever way the signal moves. What is called Kd is the free concentration of one partner at which half of the binding sites on the other are occupied at equilibrium, for simple one-to-one binding. For `CNC(=O)c1ccc(NCC#Cc2nc3c(N[C@@H]4CCN(C)C[C@@H]4F)cccn3c2CC(F)(F)F)c(OC)c1` [Example 36, 4-{[3-(8-{[(3S,4R)-3-fluoro-1-methylpiperidin-4-yl]amino}-3-(2,2,2-trifluoroethyl)imidazo[1,2-a]pyridin-2-yl)prop-2-yn-1-yl]amino}3-methoxy-N-methylbenzamide], the IC50 in assay [1] was at least 10000 nM; in assay [3] it was 750 to 1500 nM; in assay [6] it was 750 to 1500 nM. Further, the maximal effect (Emax) in assay [2] was in the range of 70 to 80%. In addition, in assay [2], the AC50 was 750 to 1500 nM. In assay [4] (10 uM compound, read-out: TSA P53 Y220C dTM (10 uM)), the ΔTm at 10 µM is 5 to 10 °C. Also, the ΔTm at 100 µM in assay [4] is at least 10 °C. Further, in assay [5], the Kd was under 10 nM.

Turning to `CNC(=O)c1ccc(NCC#Cc2nc3c(NC4CCN(C)CC4)cc(NC(=O)OC(C)(C)C)cn3c2CC(F)(F)F)c(OC)c1` [Example 39, tert-butyl N-[2-(3-{[2-methoxy-4-(methylcarbamoyl)phenyl]amino}prop-1-yn-1-yl)-8-[(1-methylpiperidin-4-yl)amino]-3-(2,2,2-trifluoroethyl)imidazo[1,2-a]pyridin-6-yl]carbamate], the IC50 in assay [1] was 5000 to 8000 nM; in assay [3], 1500 to 3000 nM; in assay [6] it was over 3000 nM. The Emax in assay [2] is under 70%. Moreover, the AC50 in assay [2] was over 3000 nM. In addition, in assay [4], the ΔTm at 100 µM lay in the range of 1 to 5 °C. In addition, the Kd in assay [5] is over 1000 nM.

Consider `CNC(=O)c1ccc(NCC#Cc2nc3c(NC4CCN(C)CC4)cc(N)cn3c2CC(F)(F)F)c(OC)c1` [Example 40, 4-[(3-{6-amino-8-[(1-methylpiperidin-4-yl)amino]-3-(2,2,2-trifluoroethyl)imidazo[1,2-a]pyridin-2-yl}prop-2-yn-1-yl)amino]-3-methoxy-N-methylbenzamide], for which the concentration for half-maximal inhibition (IC50) in assay [1] was at least 10000 nM; in assay [3], over 3000 nM; in assay [6], over 3000 nM. In assay [2], the Emax was under 70%. Moreover, in assay [2], the AC50 is over 3000 nM. Also, in assay [4], the ΔTm at 100 µM lay within 5 to 10 °C. In addition, the Kd in assay [5] was 10 to 100 nM.

For `CNC(=O)Nc1cc(NC2CCN(C)CC2)c2nc(C#CCNc3ccc(C(=O)NC)cc3OC)c(CC(F)(F)F)n2c1` [Example 44, 3-methoxy-N-methyl-4-[(3-{6-[(methylcarbamoyl)amino]-8-[(1-methylpiperidin-4-yl)amino]-3-(2,2,2-trifluoroethyl)imidazo[1,2-a]pyridin-2-yl}prop-2-yn-1-yl)amino]benzamide], the half-maximal inhibitory concentration (IC50) is at least 10000 nM in assay [1], over 3000 nM in assay [3] and over 3000 nM in assay [6]. The Emax in assay [2] was under 70%. The AC50 in assay [2] was over 3000 nM. Besides, in assay [4], the ΔTm at 100 µM lay in the range of 1 to 5 °C. In addition, the Kd in assay [5] was 100 to 1000 nM.

Take `COc1cc(C(=O)N(C)C)ccc1NCC#Cc1nc2c(N[C@@H]3CCN(C)C[C@@H]3F)cccn2c1CC(F)(F)F` [Example 46, 4-{[3-(8-{[(3S,4R)-3-fluoro-1-methylpiperidin-4-yl]amino}-3-(2,2,2-trifluoroethyl)imidazo[1,2-a]pyridin-2-yl)prop-2-yn-1-yl]amino}-3-methoxy-N,N-dimethylbenzamide]: the figures for the IC50 in assay [1], in assay [3] and in assay [6] were at least 10000 nM, 1500 to 3000 nM and 750 to 1500 nM, respectively. The same molecule yielded an Emax in assay [2] of 70 to 80%. Moreover, in assay [2], the AC50 was 1500 to 3000 nM. Further, the ΔTm at 100 µM in assay [4] is at least 10 °C. In addition, in assay [5], the Kd is under 10 nM.

Consider `CCNC(=O)c1ccc(NCC#Cc2nc3c(N[C@@H]4CCN(C)C[C@@H]4F)cccn3c2CC(F)(F)F)c(OC)c1` [Example 47, N-ethyl-4-{[3-(8-{[(3S,4R)-3-fluoro-1-methylpiperidin-4-yl]amino}-3-(2,2,2-trifluoroethyl)imidazo[1,2-a]pyridin-2-yl)prop-2-yn-1-yl]amino}-3-methoxybenzamide], for which the results for the IC50 in assay [1], in assay [3] and in assay [6] were at least 10000 nM, over 3000 nM and 1500 to 3000 nM, respectively. Also, the Emax in assay [2] fell in the range of 70 to 80%. The AC50 in assay [2] was over 3000 nM. Also, the ΔTm at 100 µM in assay [4] is at least 10 °C. For the same molecule, in assay [5], the Kd is 10 to 100 nM.

On to `COc1cc(C(=O)NC(C)C)ccc1NCC#Cc1nc2c(N[C@@H]3CCN(C)C[C@@H]3F)cccn2c1CC(F)(F)F` [Example 48, 4-{[3-(8-{[(3S,4R)-3-fluoro-1-methylpiperidin-4-yl]amino}-3-(2,2,2-trifluoroethyl)imidazo[1,2-a]pyridin-2-yl)prop-2-yn-1-yl]amino}-N-isopropyl-3-methoxybenzamide], for which the IC50 in assay [1] was 5000 to 8000 nM; in assay [3], 750 to 1500 nM; in assay [6] it was under 750 nM. Moreover, the Emax in assay [2] is 70 to 80%. Further, the AC50 in assay [2] was in the range of 750 to 1500 nM. For the same molecule, in assay [4], the ΔTm at 100 µM was at least 10 °C. In assay [5], the Kd was under 10 nM.

Turning to `COc1cc(C(=O)NC2CC2)ccc1NCC#Cc1nc2c(N[C@@H]3CCN(C)C[C@@H]3F)cccn2c1CC(F)(F)F` [Example 49, N-cyclopropyl-4-{[3-(8-{[(3S,4R)-3-fluoro-1-methylpiperidin-4-yl]amino}-3-(2,2,2-trifluoroethyl)imidazo[1,2-a]pyridin-2-yl)prop-2-yn-1-yl]amino}-3-methoxybenzamide], the results for the 50% inhibitory concentration (IC50) in assay [1], in assay [3] and in assay [6] were 8000 to 10000 nM, 750 to 1500 nM and 750 to 1500 nM, respectively. Further, in assay [2], the Emax fell in the range of 70 to 80%. Moreover, in assay [2], the AC50 is 750 to 1500 nM. Moreover, in assay [4], the ΔTm at 100 µM was at least 10 °C. The Kd in assay [5] fell in the range of 10 to 100 nM.

Take `COc1cc(C(=O)N2CCCC2)ccc1NCC#Cc1nc2c(N[C@@H]3CCN(C)C[C@@H]3F)cccn2c1CC(F)(F)F` [Example 50, (3S,4R)-3-fluoro-N-[2-(3-{[2-methoxy-4-(pyrrolidine-1-carbonyl)phenyl]amino}prop-1-yn-1-yl)-3-(2,2,2-trifluoroethyl)imidazo[1,2-a]pyridin-8-yl]-1-methylpiperidin-4-amine]: the IC50 in assay [1] is at least 10000 nM; in assay [3] it was 750 to 1500 nM; in assay [6], 750 to 1500 nM. Besides, the Emax in assay [2] is under 70%. Besides, the AC50 in assay [2] lay in the range of 750 to 1500 nM. Moreover, the ΔTm at 100 µM in assay [4] is at least 10 °C. Moreover, the Kd in assay [5] lay within 10 to 100 nM.

For `CNC(=O)c1ccc(NCC#Cc2nc3c(N[C@@H]4CCN(C)C[C@@H]4F)cccn3c2CC(F)(F)F)cn1` [Example 52, 5-{[3-(8-{[(3S,4R)-3-fluoro-1-methylpiperidin-4-yl]amino}-3-(2,2,2-trifluoroethyl)imidazo[1,2-a]pyridin-2-yl)prop-2-yn-1-yl]amino}-N-methylpyridine-2-carboxamide], the IC50 is at least 10000 nM in assay [1], over 3000 nM in assay [3] and 1500 to 3000 nM in assay [6]. In addition, the Emax in assay [2] is 70 to 80%. Also, the AC50 in assay [2] is over 3000 nM. Also, in assay [4], the ΔTm at 100 µM lay within 5 to 10 °C. Further, the Kd in assay [5] was 10 to 100 nM.

For `CNC(=O)c1ccc(NCC#Cc2nc3c(N[C@@H]4CCN(C)C[C@@H]4F)cccn3c2CC(F)(F)F)c(OC(F)(F)F)c1` [Example 53, 4-{[3-(8-{[(3S,4R)-3-fluoro-1-methylpiperidin-4-yl]amino}-3-(2,2,2-trifluoroethyl)imidazo[1,2-a]pyridin-2-yl)prop-2-yn-1-yl]amino}-N-methyl-3-(trifluoromethoxy) benzamide], the IC50 is at least 10000 nM in assay [1], 1500 to 3000 nM in assay [3] and 1500 to 3000 nM in assay [6]. The Emax in assay [2] lay within 70 to 80%. Moreover, the concentration at half-maximal activity (AC50) in assay [2] is over 3000 nM. For the same molecule, in assay [4], the ΔTm at 100 µM was in the range of 5 to 10 °C. In addition, the Kd in assay [5] was in the range of 10 to 100 nM.

Take `CNC(=O)c1ccc(NCC#Cc2nc3c(N[C@@H]4CCN(C)C[C@@H]4F)cccn3c2CC(F)(F)F)c(C(F)(F)F)c1` [Example 54, 4-{[3-(8-{[(3S,4R)-3-fluoro-1-methylpiperidin-4-yl]amino}-3-(2,2,2-trifluoroethyl)imidazo[1,2-a]pyridin-2-yl)prop-2-yn-1-yl]amino}-N-methyl-3-(trifluoromethyl)benzamide]: the IC50 in assay [1] was at least 10000 nM; in assay [3], over 3000 nM; in assay [6], over 3000 nM. The molecule further came in with an Emax in assay [2] of 70 to 80%. Moreover, in assay [2], the AC50 is over 3000 nM. For the same molecule, in assay [4], the ΔTm at 100 µM was at least 10 °C. Also, the dissociation constant Kd in assay [5] lay within 10 to 100 nM.

The values are drawn from patent US20260374766A1, “METHODS FOR TREATING CANCER” (Antares Therapeutics, Inc., priority 2022, published 2026).
